Drawing on the RepoRT retention time repository (doi:10.1021/acs.analchem.2c02893), this text covers LC retention time for 76 compounds.

A short description of the data set: RP, Thermo Scientific Acclaim RSLC 120 C18, 100 × 2.1 mm, 2.2 µm, 30 °C, 0.2 mL/min, estimated dead time 1.1 min; A: 90% water + 10% methanol + 0.01% formic acid + 5 mM ammonium formate, pH 3.61; B: methanol + 0.01% formic acid + 5 mM ammonium formate, pH 3.61; gradient (min/%B) 0/1 1/1 2/39 13/99.9 15/99.9 15.1/1 20.1/1. The settings on record: stereoisomer not certain.
Take `CCC1OC(=O)C(C)C(OC2CC(C)(OC)C(O)C(C)O2)C(C)C(OC2OC(C)CC(N(C)C)C2O)C(C)(O)CC(C)CN(C)C(C)C(O)C1(C)O` (stereo unspecified) [Azithromycin]: the LC retention time was 5.98 min. For `COC(=O)C(Cc1ccccc1)NC(=O)C(CC(=O)O)NCCC(C)(C)C` (stereo unspecified) [Neotam], the LC retention time is 8.83 min.

In the case of `CCCC1COC(Cn2cncn2)(c2ccc(Cl)cc2Cl)O1` (stereo unspecified) [Propiconazole], the LC retention time was 11 min. The result for `O=C1Cc2cc(CCN3CCN(c4nsc5ccccc45)CC3)c(Cl)cc2N1` [Ziprasidone] reads 8.03 min. As for `c1nc[nH]n1` [1,2,4-Triazole], the LC retention time was 1.56 min.

As for `CCC=CCC1=C(C)C(OC(=O)C2C(C=C(C)C(=O)OC)C2(C)C)CC1=O` (stereo unspecified) [Pyrethrins: Jasmolin II], the LC retention time is 12.2 min. For `CC(C)(C)NCC(O)c1cc(Cl)c(N)c(C(F)(F)F)c1` (stereo unspecified) [Mabuterol], the LC retention time is 5.28 min. Consider `O=C1NC(=O)C(c2ccccc2)(c2ccccc2)N1` [Phenytoin], for which the LC retention time is 7.08 min. In the case of `CNC(=C[N+](=O)[O-])NCCSCc1ccc(C[N+](C)(C)[O-])o1` [Ranitidine-N-oxide], the LC retention time was 3.43 min. As to `Cc1c(COC(=O)C2C(C=C(Cl)C(F)(F)F)C2(C)C)cccc1-c1ccccc1` (stereo unspecified) [Bifenthrin], the LC retention time was 14.1 min. With `Cc1ccc(N=Nc2c(O)ccc3ccccc23)c(C)c1` [Sudan II], the LC retention time is 14.9 min. For the compound `COC(=O)C1=C(C)NC(C)=C(C(=O)OC(C)(C)CN(C)CCC(c2ccccc2)c2ccccc2)C1c1cccc([N+](=O)[O-])c1` (stereo unspecified) [Lercanidipine], the LC retention time was 11.1 min. As for `Cc1c(NC=O)c(=O)n(-c2ccccc2)n1C` [Antipyrine- 4-Formylamino], the LC retention time is 3.96 min. The result for `NC(N)=NC(=O)c1nc(Cl)c(N)nc1N` [Amiloride] reads 3.68 min. Regarding `COc1ccc2cc(CCC(C)=O)ccc2c1` [Nabumetone], the LC retention time is 9.82 min.

`COc1ccc2c(c1OC)C(=O)OC2C1c2c(cc3c(c2OC)OCO3)CCN1C` (stereo unspecified) [Noscapine]: the LC retention time was 6.96 min. As for `Cc1ccc(-c2nc3ccc(C)cn3c2CC(=O)N(C)C)cc1` [Zolpidem], the LC retention time is 5.8 min. To `OC(CCN1CCCCC1)(c1ccccc1)C1CCCCC1` (stereo unspecified) [Trihexyphenidyl. Benzhexol] belongs 7.86 min. For the compound `CCCCCCCCCCCC(=O)N(CCO)CCO` [Lauryl diethanolamide], the LC retention time is 11.7 min. As for `CN1CCC(=C2c3ccccc3CCc3sccc32)CC1` [Pizotifen], the LC retention time is 7.86 min. For the compound `CCOP(=S)(Oc1cnc(C(C)(C)C)nc1)OC(C)C` (stereo unspecified) [Tebupirimphos], the LC retention time is 12.3 min. Regarding `Cc1nnc(-c2ccccc2)c(=O)n1N` [Metamitron], the LC retention time was 5.24 min. The result for `O=C(O)Cc1c[nH]c2ccc(O)cc12` [5-Hydroxyindole-3-acetic acid] reads 3.93 min; that for `NCC(CC(=O)O)c1ccc(Cl)cc1` (stereo unspecified) [Baclofen], 4.27 min; that for `CC(C)(C(=O)c1cccnc1)c1cccnc1` [Metyrapone], 6.21 min. To `COc1nccnc1NS(=O)(=O)c1ccc(N)cc1` [Sulfalene] belongs 4.44 min. To `CCNc1nc(NC(C)C)[nH]c(=O)n1` [Atrazine-2-hydroxy] belongs 5.03 min.

In the case of `COc1cc(CCN)c(OC)cc1Cl` [2C-C], the LC retention time was 5.28 min.

For `CN1CCC(=C2c3ccccc3C=Cc3ccccc32)CC1` [Cyproheptadine], the LC retention time was 7.89 min. In the case of `C#CC1(OC(C)=O)CCC2C3CCC4=CC(=NO)CCC4C3CCC21CC` (stereo unspecified) [Norgestimate], the LC retention time is 11.9 min. To `CCOC(=O)NC(=S)Nc1ccccc1NC(=S)NC(=O)OCC` [Thiophanate-ethyl] belongs 8.61 min; to `CN1CCN(C2=Nc3cc(Cl)ccc3Nc3ccccc32)CC1` [Clozapine], 7.19 min; to `CN(C)CCN1C(=O)c2ccccc2Nc2cc(Cl)ccc21` [Clobenzepam], 6.32 min.

For the compound `CCCCCCCCCCCCOCCOCCOCCOCCO` [Tetraethylene glycol monododecyl ether], the LC retention time was 13.5 min. The result for `CNc1nc(C)c(C)c(OC(=O)N(C)C)n1` [Pirimicarb-desmethyl] reads 5.89 min; that for `CCOC(=O)c1ccc(O)cc1` [Ethylparaben], 7.15 min. The result for `CC1C(c2ccccc2)OCCN1C` (stereo unspecified) [Phendimetrazine] reads 4.06 min; that for `CC(=O)NCC1CN(c2ccc(N3CCOCC3)c(F)c2)C(=O)O1` (stereo unspecified) [Linezolid], 5.56 min. With `CCCc1nn(C)c2c(=O)[nH]c(-c3cc(S(=O)(=O)N4CCN(C5CCCC5)CC4)ccc3OCC)nc12` [Cyclopentynafil], the LC retention time was 9.01 min. In the case of `OCCOCCN1CCN(C2=Nc3ccccc3Sc3ccccc32)CC1` [Quetiapine], the LC retention time was 7.26 min. With `CC(C)=CC1C(C(=O)OCN2C(=O)C3=C(CCCC3)C2=O)C1(C)C` (stereo unspecified) [Tetramethrin], the LC retention time is 12.2 min. The result for `COC(=O)C1Cc2c([nH]c3ccccc23)C(c2ccc3c(c2)OCO3)N1C(=O)CCl` (stereo unspecified) [Chloropretadalafil] reads 9.34 min; that for `c1ccc2sc(N3CCOCC3)nc2c1` [2-(4-Morpholinyl)benzothiazole], 8.5 min. Turning to `CN1C(=O)C(O)CC1c1cccnc1` (stereo unspecified) [Cotinine-Hydroxy], the LC retention time is 3.13 min. To `NCC(O)COc1ccccc1C(=O)CCc1ccccc1` (stereo unspecified) [Propafenone-N-Desmethyl] belongs 7.09 min; to `CN(C)C=Nc1c(I)cc(I)c(CCC(=O)O)c1I` [Iopodic acid], 10.2 min; to `O=CNC(N1CCN(C(NC=O)C(Cl)(Cl)Cl)CC1)C(Cl)(Cl)Cl` (stereo unspecified) [Triforine], 8.65 min. The result for `CN(C)CCC=C1c2ccccc2C=Cc2ccccc21` [Cyclobenzaprine] reads 7.95 min. `CN1C(=O)CN=C(c2ccccc2F)c2cc(N)ccc21` [Flunitrazepam- 7-Amino]: the LC retention time is 5.41 min. Turning to `CCOC(=O)C1C(OC(=O)c2ccccc2)CC2CCC1N2C` (stereo unspecified) [Cocaethylene], the LC retention time was 5.46 min. As to `CCc1cccc(CC)c1N(COC)C(=O)CS(=O)(=O)O` [Alachlor-ESA], the LC retention time was 7.19 min. In the case of `CC(C(O)c1ccccc1)N(C)C` (stereo unspecified) [Methylephedrine], the LC retention time is 3.73 min. In the case of `CCC1CCCC(OC2CCC(N(C)C)C(C)O2)C(C)C(=O)C2=CC3C(C=CC4CC(OC5OC(C)C(OC)C(OC)C5OC)CC43)C2CC(=O)O1` (stereo unspecified) [Spinosyn A], the LC retention time was 11.2 min. As to `Cc1cccc(C(=O)O)c1N(Cn1cccn1)C(=O)C(=O)O` [Metazachlor BH479-12], the LC retention time is 4.42 min.

In the case of `COCC(=O)N(c1c(C)cccc1C)N1CCOC1=O` [Oxadixyl], the LC retention time was 6.29 min.

For `O=C(Nc1cccc(Cl)c1)OCC#CCCl` [Barban], the LC retention time was 9.74 min.

For the compound `CNCCC(Oc1ccc(C(F)(F)F)cc1)c1ccccc1` (stereo unspecified) [Fluoxetine], the LC retention time is 8.6 min. For the compound `CN(C)C(CSS(=O)(=O)c1ccccc1)CSS(=O)(=O)c1ccccc1` [Bensultap], the LC retention time is 9.6 min. Regarding `CCNc1nc(Cl)nc(NCC)n1` [Simazine], the LC retention time was 7.07 min. Turning to `CC12C=CC(=O)C=C1CCC1C2C(=O)CC2(C)C1CCC2(O)C(=O)CO` (stereo unspecified) [Prednisone], the LC retention time is 7.85 min.

On to `CC(N)Cc1cccc(F)c1` (stereo unspecified) [Amphetamine (3-F-)], for which the LC retention time is 4.39 min.

Turning to `COC(C)C(O)(C(=O)OCC1=CCN2CCC(O)C12)C(C)C` (stereo unspecified) [Heliotrine], the LC retention time is 4.27 min.

Take `CN1CCCCC1Cn1cc(C(=O)c2ccccc2I)c2ccccc21` (stereo unspecified) [AM-2233]: the LC retention time is 7.11 min. For the compound `CC(Cn1cnc2c(N)ncnc21)OCP(=O)(O)O` (stereo unspecified) [Tenofovir], the LC retention time was 2.69 min. To `CON=C(C1=NOCCO1)c1ccccc1Oc1ncnc(Oc2ccccc2Cl)c1F` [Fluoxastrobin] belongs 9.95 min. The result for `CCn1nc(C(=O)O)c(=O)c2cc3c(cc21)OCO3` [Cinoxacin] reads 5.32 min. For the compound `CON=C(Cc1cccnc1)c1ccc(Cl)cc1Cl` [Pyrifenox], the LC retention time is 10.1 min. On to `CCCCN(CCCC)CCCC` [Tributylamine], for which the LC retention time is 5.28 min. Turning to `COc1cc2c(cc1OC)C(=O)C(CC1CCN(Cc3ccccc3)CC1)C2` (stereo unspecified) [Donepezil], the LC retention time was 5.81 min.

As for `CCC(CC)COC(C(=O)OCCN(C)C)(c1ccccc1)c1ccccc1` [Denaverine], the LC retention time was 11.6 min.

As to `COc1cc(OC)nc(NC(=O)NS(=O)(=O)c2cc(NC=O)ccc2C(=O)N(C)C)n1` [Foramsulfuron], the LC retention time is 7.54 min.

Regarding `CC12CCC(=O)C=C1CCC1C2C(=O)CC2(C)C1CCC2(O)C(=O)CO` (stereo unspecified) [Cortisone E  (4-Pregnene-17.21-diol-3.11.20-trione)], the LC retention time was 7.41 min. The result for `CC(C)(C)C(O)C(Oc1ccc(Cl)cc1)n1cncn1` (stereo unspecified) [Triadimenol] reads 9.93 min; that for `CNC(C)C(=O)c1ccc(Cl)cc1` (stereo unspecified) [Clephedrone (4-Chloromethcathinone)], 4.91 min. `CCCCCCCCCCCC(=O)NCC(C)O` (stereo unspecified) [Lauric isopropanolamide]: the LC retention time was 12.1 min. For the compound `CCCOCCN(C(=O)CCl)c1c(CC)cccc1CC` [Pretilachlor], the LC retention time is 11.8 min.
